Measured values reported in patent publication US7507792B2, “MDA-7 proteins and methods of use thereof” (The Trustees of Columbia University In The City of New York, priority 1993, dated 2009).

Experiments:
HL-525 cells = test: OKM1 reactivity (immunofluorescence); format: cell-based, human; details: TPA 3 nM, RA 1 μM or Vit D3 400 nM, percent OKM1 positive cells
Procedure: (§1) HL-60 cells were originally provided by Dr. R. C. Gallo (National Cancer Institute, Bethesda, Md.) (Collins et al., 1978; Huberman & Callaham, 1979). HL-60 cells designated HL-525 were derived by cloning HL-60 cells after subculturing 102 times in the presence of increasing concentrations (up to 3 μM) of TPA at 5- to 8-day intervals (Homma et al., 1986; Mitchell et al., 1986). […] Prior to the experiments described in this study, the HL-525 cells were subcultured more than 20 times in the absence of TPA. Cells were grown in 100-mm tissue culture dishes in RPMI 1640 medium supplemented with 20% fetal bovine serum, penicillin (100 units/ml) and streptomycin (100 μg/ml) (Grand Island Biological Co., NY) at 37° C. in an atmosphere of 5% CO2 in air in a humidified incubator. The 1,25-(OH)2D3(Vit D3) and TPA were dissolved in a final concentration of 0.01% DMSO, and all-trans retinoic acid (RA) was dissolved in 0.1% DMSO in culture medium. […] Control cultures were treated with DMSO at a final concentration of 0.1% in culture medium. For experiments designed to test the effect of DMSO on HL-60 and HL-525 cells, DMSO was added to tissue culture medium at a final concentration of 1%. Stock solutions of CHX (10 mg/ml) were prepared in culture medium. CHX was added at a final concentration of 10 μg/ml. To examine a requirement for protein synthesis on mda-6 gene expression, HL-60 or HL-525 cells were seeded into 150 mm Petri dishes (5×10^5 cells/ml) in 30 ml of medium. CHX was added to a final concentration of 10 μg/ml 15 min prior to the addition of TPA to 3 nM. Cells were harvested at various times after addition of TPA for subsequent RNA isolation and analysis.
(§2) Cell counts were determined by hemocytometer chamber counting. Immunofluorescence tests for reactivity with the OKM1 antibody (Ortho Pharmaceutical Corp., Raritan, N.J.) were performed as previously described (Murao et al., 1983).

HL-60 cells = test: OKM1 reactivity (immunofluorescence); format: cell-based, human; details: TPA 3 nM, RA 1 μM or Vit D3 400 nM, percent OKM1 positive cells
Procedure: as §1, §2

[1] = tested on: H0-1 human melanoma cell line; test: 96-h growth suppression (cell number by Coulter Counter); format: cell-based; details: for Growth Suppression (reversible): H0-1 cells, degree of initial 96 hr growth suppression versus untreated control
Procedure: FIG. 1A-B Effect of continuous exposure to various growth and differentiation modulating agents on the 96-h growth of the human melanoma cell line, H0-1. Cells were seeded at 5×10^4/35-mm tissue culture plate and 24 h later the medium was changed with the indicated compounds. Cell numbers were determined by Coulter Counter after 96-h growth. Further details can be found in Materials and Methods.
The H0-1 cell line is a melanotic melanoma derived from a person and was used between passage 100 and 125 (6,8,13). H0-1 cells were kindly provided by Dr. Beppino C. Giovanella, Stehlin Foundation for Cancer Research, Houston, Tex. Cultures were grown at 37° C. in a 95% air 5% CO2-humidified incubator in Dulbecco's modified Eagle's medium (DMEM) supplemented with 10% fetal bovine serum (DMEM-10) (Hyclone, Logan, Utah). H0-1 cells were maintained in the logarithmic stage of growth by subculturing (1:5 or 1:10) prior to confluency approximately every 4 to 5 days. […] Total cell numbers were determined after days 4, 7, 14, and 21, using a ZM Coulter Counter, and viable cell numbers were determined by trypan blue dye exclusion (6). […] Increases in cell number (two or more population doublings) after removal of the inducing agent(s) was considered reversible growth suppression. […] Conditioned medium was collected from treated cultures, contaminating cells were removed by centrifugation at 1000 rpm/10 min., and conditioned medium was stored at 4° C. until assayed for gene modulatory activity. Control conditioned medium was obtained as experimental conditioned medium from cells receiving only a medium change 24 hours after plating in the absence of test compound(s) and growth for 72 hours in DMEM-10.

mda-9 = mda-9 expression (Northern blotting); format: cell-based, human; details: H0-1
Procedure: The mass excision of the library was performed using ExAssist helper phage as described above. The SOLR strain of Escherichia coli and cDNA phagemids were mixed at 37° C. for 15 min and plated onto LB plates containing ampicillin and IPTG/X-gal. White colonies were chosen at random, isolated and grown in LB medium. Plasmid minireps and restriction enzyme digestions were performed to confirm the presence of inserts. The inserts were isolated and used as robes for Northern blotting analysis (5,25). […] Radiolabeled probes were generated by random oligonucleotide priming (25). Prehybridization, hybridization, posthybridization washes, and autoradiography were performed as described (5,18,25).

[2] = 96 hours, doses of FIG. 15 legend

Row | SMILES | OKM1 reactivity, Days of induction 4 (HL-525 cells) [%] | OKM1 reactivity, Days of induction 6 (HL-525 cells) [%] | OKM1 reactivity, Days of induction 2 (HL-60 cells) [%] | OKM1 reactivity, Days of induction 4 (HL-60 cells) [%] | OKM1 reactivity, Days of induction 6 (HL-60 cells) [%] | inhibition of H0-1 growth ([1]; H0-1, 96 hours, FIG. 1 concentrations) | Growth Suppression (reversible) ([1]; Table 1) | Growth Suppression (reversible) ([1]; Table 2) | mda-9 expression (mda-9; [2]) | mda-9 expression (mda-9; 24 hours, doses of FIG. 19, phenyl butyrate 24 hours, 4 days or 7 days)
1 | CC1=C(/C=C/C(C)=C/C=C/C(C)=C/C(=O)O)C(C)(C)CCC1 [RA, trans-retinoic acid] | 10 | 13 | 49 | 76 | 77 | no inhibition of growth | − (− = no significant change in growth (<10% reduction in growth in comparison with untreated control cultures)) | − (− = no significant change in growth (<10% reduction in growth in comparison with untreated control cultures)) | No change in mda-9 expression | 
2 | C=C(C)[C@@]12O[C@@]3(c4ccccc4)O[C@@H]1[C@@H]1[C@@H]4O[C@]4(CO)[C@@H](O)[C@]4(O)C(=O)C(C)=C[C@H]4[C@@]1(O3)[C@H](C)[C@H]2OC(=O)/C=C/C=C/c1ccccc1 [MEZ, mezerein] |  |  |  |  |  |  | 1+ (1+ = ~30% reduction in growth in comparison with untreated control cultures) | 1+ (1+ = ~30% reduction in growth in comparison with untreated control cultures) | No change in mda-9 expression | Increased expression
3 | CCCCCCCCCCCCCC(=O)O[C@@H]1[C@@H](C)[C@@]2(O)[C@@H](C=C(CO)C[C@]3(O)C(=O)C(C)=C[C@@H]23)[C@@H]2C(C)(C)[C@]12OC(C)=O [TPA, 12-O-tetradecanoyl-phorbol-13-acetate] | 8 | 4 | 55 | 81 | 95 |  |  |  |  | 
